The record followed here is patent US7883708B2, “Substance derived from basidiomycetes culture, method for producing it and its use” (Amino Up Chemical Co., Ltd., priority 1999, dated 2011).

Converted amounts (≈) assume the structure as drawn.

Common to all, as to experiment: 50% growth suppression concentration (IC50) of tumor cells (MTT)
Common to all, as to assay type: cell-based

Test [1] relates to Du145 human prostatic cells. As to conditions: DU-145, 48 hours, read-out: IC50 (μg/ml) Du145. An excerpt:
(§1) 3LL mouse lung cancer cells, Colon 26 mouse colorectal cancer cells, PC3 human prostatic cancer cells, Du145 human prostatic cells, and LNCAP human prostatic cells were used and 50% suppression concentrations (IC50) of Invention Substance 1, genistein standard preparation (produced by Sigma) and basidiomycetes culture (product obtained by cultivating basidiomycetes in the absence of isoflavones-containing material under the same conditions as in Example 1) on these cells were examined.
(§2) That is, Invention Substance 1, genistein standard preparation or basidiomycetes culture was suspended in distilled water and were autoclaved and added to the cells in a continuously varied concentration of from 1,000 μg/ml to 0.1 μg/ml. The tumor cell suspension was adjusted to 1-2×10^5 cells/well with DMEM medium containing 10% FBS and cultivated at 37° C. for 48 hours. Then, after addition of Invention Substance 1 or genistein standard preparation, the cells were further cultivated for additional 48 hours, followed by examining cell growth by the MTT method using a microplate reader. Lower numerical values indicate that 50% suppression of the growth of cultured cancer cells is possible at lower concentrations.

In test [2] the test system is Colon 26 mouse colorectal cancer cells. As to conditions: 48 hours, read-out: IC50 (μg/ml) Colon 26.
From the text: as §1, §2

For test [3], the system named is PC3 human prostatic cancer cells. The note with it: 48 hours, read-out: IC50 (μg/ml) PC3.
From the text: as §1, §2

Test [4] concerns LNCAP human prostatic cells. The note with it: 48 hours, read-out: IC50 (μg/ml) LNCaP.
From the text: as §1, §2

Test [5] deals with 3LL mouse lung cancer cells. The note with it: 48 hours, read-out: IC50 (μg/ml) 3LL.
From the text: as §1, §2

As for `O=c1c(-c2ccc(O)cc2)coc2cc(O)cc(O)c12` [Genistein standard preparation, genistein], the IC50 in test [1] came out at 55.3 µg/mL (≈ 205 µM); in test [2], 51.2 µg/mL (≈ 190 µM); in test [3], 35.8 µg/mL (≈ 132 µM); in test [4] it was 69.4 µg/mL (≈ 257 µM); in test [5], 31.8 µg/mL (≈ 118 µM).
